Active and inactive are the calls of the source. The rule behind the calls is not given here.

Experiment [1] has as its system EA.hy 926. Nature of the experiment: Antiinflammatory activity in TNFalpha-induced human EA.hy 926 cells assessed as decrease in HLA-A expression by measuring log2 fold change at 20 uM pretreated with compound for 1 hr followed by TNFalpha challenge and further incubated for 24 hrs by SYBR-green based qRT-PCR analysis (reference value: 1.56). Type of experiment: functional. Particulars: time 25 hrs.

Experiment [2] relates to EA.hy 926. Nature of the experiment: Cytotoxicity against human EA.hy 926 cells assessed as inhibition of cell proliferation at 20 uM after 24 hrs by MTT assay. It is filed as functional, cell-based. A general note: Formazan colour is commonly taken as a measure of viable cells.
The subject of experiment [3] is EA.hy 926. Put plainly: Antiinflammatory activity in TNFalpha-induced human EA.hy 926 cells assessed as decrease in SOD-2 expression by measuring log2 fold change at 20 uM pretreated with compound for 1 hr followed by TNFalpha challenge and further incubated for 24 hrs by SYBR-green based qRT-PCR analysis (reference value: 2.69). The following applies: time 25 hrs. It is filed as functional.

Experiment [4] has as its system EA.hy 926. Nature of the experiment: Antiinflammatory activity in TNFalpha-induced human EA.hy 926 cells assessed as decrease in […] expression at 20 uM pretreated with compound for 1 hr followed by TNFalpha challenge and further incubated for 24 hrs by SYBR-green based qRT-PCR analysis. Type of experiment: functional, cell-based. Particulars: time 25.0 hrs.
Experiment [5] relates to EA.hy 926. Nature of the experiment: Antiinflammatory activity in TNFalpha-induced human EA.hy 926 cells assessed as decrease in IL1B expression at 20 uM pretreated with compound for 1 hr followed by TNFalpha challenge and further incubated for 24 hrs by SYBR-green based qRT-PCR analysis. Particulars: time 25.0 hrs. It is filed as functional, cell-based.
In experiment [6] the test system is EA.hy 926. Nature of the experiment: Antiinflammatory activity in TNFalpha-induced human EA.hy 926 cells assessed as decrease in IL8 expression at 20 uM pretreated with compound for 1 hr followed by TNFalpha challenge and further incubated for 24 hrs by SYBR-green based qRT-PCR analysis. It is filed as functional, cell-based. Particulars: time 25.0 hrs. Background: In qPCR the cycle at which signal appears reflects the starting amount.

The subject of experiment [7] is EA.hy 926. Put plainly: Antiinflammatory activity in TNFalpha-induced human EA.hy 926 cells assessed as decrease in ICAM-1 expression by measuring log2 fold change at 20 uM pretreated with compound for 1 hr followed by TNFalpha challenge and further incubated for 24 hrs by SYBR-green based qRT-PCR analysis. It is filed as functional. The following applies: time 25 hrs.

In the case of `O=C(/C=C/c1cccnc1)c1ccncc1`, the log2FC in experiment [1] is recorded as -0.75; in experiment [3] it was -0.53; in experiment [7], -0.47. Also, the inhibition entry in experiment [2] was “Active”. For the same molecule, the outcome in experiment [4], in experiment [5] and in experiment [6] was Active.

The values are drawn from ChEMBL document CHEMBL4665646, “Mass Spectrometry-based Label-free Quantitative Proteomics To Study the Effect of 3PO Drug at Cellular Level” (2019).
